# Results: US9850283B2, “Macrocyclic inhibitors of the PD-1/PD-L1 and CD80(B7-1)/PD-L1 protein/protein interactions” (BRISTOL-MYERS SQUIBB COMPANY, priority 2013, dated 2017)
# Positions of bridges follow the written chain, without caps; N, C: chain ends. Non-standard residues stand in square brackets, D forms with d. Residues, ends and D or L forms follow the SMILES beside them. Bta = N[C@@H](Cc1csc2ccccc12)C(=O)O; Hyp = O=C(O)[C@@H]1C[C@@H](O)CN1; NMeNle = CCCC[C@H](NC)C(=O)O; NMeA = CN[C@@H](C)C(=O)O; Dab = NCC[C@H](N)C(=O)O; Dap = NC[C@H](N)C(=O)O
# Assays:
# Human PD-L1/PD-1 = molecular target: T1, Human PD-L1/PD-1 (Homo sapiens, UniProt Q9NZQ7); assay: HTRF PD-1-Ig/PD-L1-His binding assay (human PD-L1); conditions: cluster symbol; read-out: HTRF IC50 cluster
# T1 construct: made in house; host or cells: HEK293T
# T1 sequence (Q9NZQ7 with tags, fused parts or gaps): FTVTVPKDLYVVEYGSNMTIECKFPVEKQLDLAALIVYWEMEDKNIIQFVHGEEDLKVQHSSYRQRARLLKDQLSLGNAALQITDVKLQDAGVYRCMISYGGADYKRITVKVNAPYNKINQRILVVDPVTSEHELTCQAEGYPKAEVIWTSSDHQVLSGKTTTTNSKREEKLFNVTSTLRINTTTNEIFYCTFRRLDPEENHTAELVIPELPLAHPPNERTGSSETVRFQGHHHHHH
# How it was run: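 Soluble Fc-fused PD-1 and His-tagged PD-L1 (truncated before the transmembrane region) were combined in dPBS with 0.1% (w/v) BSA and 0.05% (v/v) Tween-20. Binding was read by HTRF using europium cryptate anti-Ig antibody (1 nM final) and APC anti-His antibody (20 nM final).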
# [1] = molecular target: T2, LK35.2-hPD-L1 cells / PE-labeled PD-1-Ig (Homo sapiens, UniProt Q9NZQ7); assay: LK35.2-hPD-L1 cell binding high-content screening assay; type: cell-based; conditions: cell binding assay, cell line not given; cluster symbol; read-out: CBA IC50 cluster
# T2 construct: expressed in transfected cells; host or cells: LK35.2 mouse B cell line
# T2 sequence (Q9NZQ7 19-290): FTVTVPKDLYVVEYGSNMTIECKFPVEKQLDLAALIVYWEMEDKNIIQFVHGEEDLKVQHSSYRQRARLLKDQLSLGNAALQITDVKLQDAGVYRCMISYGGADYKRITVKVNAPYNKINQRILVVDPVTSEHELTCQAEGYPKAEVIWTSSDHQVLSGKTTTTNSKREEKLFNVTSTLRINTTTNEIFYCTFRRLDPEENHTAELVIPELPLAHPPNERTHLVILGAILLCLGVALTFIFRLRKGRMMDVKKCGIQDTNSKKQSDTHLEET
# How it was run: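 Mouse LK35.2 B cells stably over-expressing human PD-L1, cultured overnight, treated with compound plus PE-labeled human PD-1-Ig (1 nM final) in RPMI/10% FCS for 1 h at 37 °C. After washing, bound fluorescence quantified by high-content imaging.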
IC50 (Human PD-L1/PD-1),IC50 [1],Structure (SMILES)
0.385 to 6.74 nM,4.78 to 72.9 nM,CCCC[C@H]1C(=O)N(C)[C@@H](CCCC)C(=O)N[C@@H](CN)C(=O)N[C@H](C(=O)NCC(N)=O)CSCC(=O)N[C@@H](Cc2ccc(O)cc2)C(=O)N(C)[C@@H](C)C(=O)N[C@@H](CC(N)=O)C(=O)N2CCC[C@H]2C(=O)N[C@@H](CN)C(=O)N[C@@H](CCC(=O)O)C(=O)N2C[C@H](O)C[C@H]2C(=O)N[C@@H](Cc2c[nH]c3ccccc23)C(=O)N[C@@H](CCN)C(=O)N[C@@H](Cc2c[nH]c3ccccc23)C(=O)N1C [Example 5060] ({CH2CO}-Y[NMeA]NP[Dap]E[Hyp]W[Dab]W[NMeNle][NMeNle][Dap]CG-NH2; thioether N-14)
0.385 to 6.74 nM,0.158 to 4.71 nM,CCCC[C@H]1C(=O)N(C)[C@@H](CCCC)C(=O)N[C@@H](CN)C(=O)N[C@H](C(=O)NCC(N)=O)CSCC(=O)N[C@@H](Cc2ccc(O)cc2)C(=O)N(C)[C@@H](C)C(=O)N[C@@H](CC(N)=O)C(=O)N2CCC[C@H]2C(=O)N[C@@H](CN)C(=O)N[C@@H](CCC(=O)O)C(=O)N2C[C@H](O)C[C@H]2C(=O)N[C@@H](Cc2c[nH]c3ccccc23)C(=O)N[C@@H](CO)C(=O)N[C@@H](Cc2c[nH]c3ccccc23)C(=O)N1C [Example 5061] ({CH2CO}-Y[NMeA]NP[Dap]E[Hyp]WSW[NMeNle][NMeNle][Dap]CG-NH2; thioether N-14)
0.385 to 6.74 nM,0.158 to 4.71 nM,CCCC[C@H]1C(=O)N(C)[C@@H](CCCC)C(=O)N[C@@H](CN)C(=O)N[C@H](C(=O)NCC(N)=O)CSCC(=O)N[C@@H](Cc2ccc(O)cc2)C(=O)N(C)[C@@H](C)C(=O)N[C@@H](CC(N)=O)C(=O)N2CCC[C@H]2C(=O)N[C@@H](CN)C(=O)N[C@@H](CC(C)C)C(=O)N2C[C@H](O)C[C@H]2C(=O)N[C@@H](Cc2c[nH]c3ccccc23)C(=O)N[C@@H](CO)C(=O)N[C@@H](Cc2c[nH]c3ccccc23)C(=O)N1C [Example 5063] ({CH2CO}-Y[NMeA]NP[Dap]L[Hyp]WSW[NMeNle][NMeNle][Dap]CG-NH2; thioether N-14)
0.385 to 6.74 nM,0.158 to 4.71 nM,CCCC[C@H]1C(=O)N(C)[C@@H](CCCC)C(=O)N[C@@H](CN)C(=O)N[C@H](C(=O)NCC(N)=O)CSCC(=O)N[C@@H](Cc2ccc(O)cc2)C(=O)N(C)[C@@H](C)C(=O)N[C@@H](CC(N)=O)C(=O)N2CCC[C@H]2C(=O)N[C@@H](Cc2c[nH]cn2)C(=O)N[C@@H](CCC(=O)O)C(=O)N2C[C@H](O)C[C@H]2C(=O)N[C@@H](Cc2c[nH]c3ccccc23)C(=O)N[C@@H](CCN)C(=O)N[C@@H](Cc2c[nH]c3ccccc23)C(=O)N1C [Example 5064] ({CH2CO}-Y[NMeA]NPHE[Hyp]W[Dab]W[NMeNle][NMeNle][Dap]CG-NH2; thioether N-14)
0.385 to 6.74 nM,0.158 to 4.71 nM,CCCC[C@H]1C(=O)N(C)[C@@H](CCCC)C(=O)N[C@@H](CC(C)C)C(=O)N[C@H](C(=O)NCC(N)=O)CSCC(=O)N[C@@H](Cc2ccc(O)cc2)C(=O)N(C)[C@@H](C)C(=O)N[C@@H](CC(N)=O)C(=O)N2CCC[C@H]2C(=O)N[C@@H](Cc2c[nH]cn2)C(=O)N[C@@H](CCC(=O)O)C(=O)N2C[C@H](O)C[C@H]2C(=O)N[C@@H](Cc2c[nH]c3ccccc23)C(=O)N[C@@H](CCN)C(=O)N[C@@H](Cc2c[nH]c3ccccc23)C(=O)N1C [Example 5065] ({CH2CO}-Y[NMeA]NPHE[Hyp]W[Dab]W[NMeNle][NMeNle]LCG-NH2; thioether N-14)

# The remaining lines, values behind:
Structure (SMILES),IC50 (Human PD-L1/PD-1),IC50 [1]
CCCC[C@H]1C(=O)N(C)[C@@H](CCCC)C(=O)N[C@@H](CC(C)C)C(=O)N[C@H](C(=O)NCC(N)=O)CSCC(=O)N[C@@H](Cc2ccc(O)cc2)C(=O)N(C)[C@@H](C)C(=O)N[C@@H](CC(N)=O)C(=O)N2CCC[C@H]2C(=O)N[C@@H](Cc2cnc[nH]2)C(=O)N[C@@H](CCC(=O)O)C(=O)N2C[C@H](O)C[C@H]2C(=O)N[C@@H](Cc2csc3ccccc23)C(=O)N[C@@H](CCN)C(=O)N[C@@H](Cc2c[nH]c3ccccc23)C(=O)N1C [Example 5051] ({CH2CO}-Y[NMeA]NPHE[Hyp][Bta][Dab]W[NMeNle][NMeNle]LCG-NH2; thioether N-14),> 30.5 nM,> 74.3 nM
CCCC[C@H]1C(=O)N(C)[C@@H](CCCC)C(=O)N[C@@H](CCCNC(=N)N)C(=O)N[C@H](C(=O)NCC(N)=O)CSCC(=O)N[C@@H](Cc2ccc(O)cc2)C(=O)N(C)[C@@H](C)C(=O)N[C@@H](CC(N)=O)C(=O)N2CCC[C@H]2C(=O)N[C@@H](Cc2cnc[nH]2)C(=O)N[C@@H](CCC(=O)O)C(=O)N2C[C@H](O)C[C@H]2C(=O)N[C@@H](Cc2csc3ccccc23)C(=O)N[C@@H](CCN)C(=O)N[C@@H](Cc2c[nH]c3ccccc23)C(=O)N1C [Example 5052] ({CH2CO}-Y[NMeA]NPHE[Hyp][Bta][Dab]W[NMeNle][NMeNle]RCG-NH2; thioether N-14),> 30.5 nM,> 74.3 nM
CCCC[C@H]1C(=O)N(C)[C@@H](CCCC)C(=O)N[C@@H](CCN)C(=O)N[C@H](C(=O)NCC(N)=O)CSCC(=O)N[C@@H](Cc2ccc(O)cc2)C(=O)N(C)[C@@H](C)C(=O)N[C@@H](CC(N)=O)C(=O)N2CCC[C@H]2C(=O)N[C@@H](Cc2cnc[nH]2)C(=O)N[C@@H](CCC(=O)O)C(=O)N2C[C@H](O)C[C@H]2C(=O)N[C@@H](Cc2csc3ccccc23)C(=O)N[C@@H](C)C(=O)N[C@@H](Cc2c[nH]c3ccccc23)C(=O)N1C [Example 5053] ({CH2CO}-Y[NMeA]NPHE[Hyp][Bta]AW[NMeNle][NMeNle][Dab]CG-NH2; thioether N-14),> 30.5 nM,> 74.3 nM
CCCC[C@H]1C(=O)N(C)[C@@H](CCCC)C(=O)N[C@@H](CCN)C(=O)N[C@H](C(=O)NCC(N)=O)CSCC(=O)N[C@@H](Cc2ccc(O)cc2)C(=O)N(C)[C@@H](C)C(=O)N[C@@H](CC(N)=O)C(=O)N2CCC[C@H]2C(=O)N[C@@H](Cc2cnc[nH]2)C(=O)N[C@@H](CCC(=O)O)C(=O)N2C[C@H](O)C[C@H]2C(=O)N[C@@H](Cc2csc3ccccc23)C(=O)N[C@@H](CO)C(=O)N[C@@H](Cc2c[nH]c3ccccc23)C(=O)N1C [Example 5054] ({CH2CO}-Y[NMeA]NPHE[Hyp][Bta]SW[NMeNle][NMeNle][Dab]CG-NH2; thioether N-14),> 30.5 nM,> 74.3 nM
CCCC[C@H]1C(=O)N(C)[C@@H](CCCC)C(=O)N[C@@H](CCN)C(=O)N[C@H](C(=O)NCC(N)=O)CSCC(=O)N[C@@H](Cc2ccc(O)cc2)C(=O)N(C)[C@@H](C)C(=O)N[C@@H](CC(N)=O)C(=O)N2CCC[C@H]2C(=O)N[C@@H](Cc2cnc[nH]2)C(=O)N[C@@H](CCC(=O)O)C(=O)N2C[C@H](O)C[C@H]2C(=O)N[C@@H](Cc2csc3ccccc23)C(=O)N[C@@H](CCN)C(=O)N[C@@H](Cc2c[nH]c3ccccc23)C(=O)N1C [Example 5055] ({CH2CO}-Y[NMeA]NPHE[Hyp][Bta][Dab]W[NMeNle][NMeNle][Dab]CG-NH2; thioether N-14),> 30.5 nM,> 74.3 nM
CCCC[C@H]1C(=O)N(C)[C@@H](CCCC)C(=O)N[C@@H](CCN)C(=O)N[C@H](C(=O)NCC(N)=O)CSCC(=O)N[C@@H](Cc2ccc(O)cc2)C(=O)N(C)[C@@H](C)C(=O)N[C@@H](CC(N)=O)C(=O)N2CCC[C@H]2C(=O)N[C@@H](Cc2cnc[nH]2)C(=O)N[C@@H](CCC(N)=O)C(=O)N2C[C@H](O)C[C@H]2C(=O)N[C@@H](Cc2csc3ccccc23)C(=O)N[C@@H](CCN)C(=O)N[C@@H](Cc2c[nH]c3ccccc23)C(=O)N1C [Example 5056] ({CH2CO}-Y[NMeA]NPHQ[Hyp][Bta][Dab]W[NMeNle][NMeNle][Dab]CG-NH2; thioether N-14),> 30.5 nM,> 74.3 nM
CCCC[C@H]1C(=O)N(C)[C@@H](CCCC)C(=O)N[C@@H](CCCNC(=N)N)C(=O)N[C@H](C(=O)NCC(N)=O)CSCC(=O)N[C@@H](Cc2ccc(O)cc2)C(=O)N(C)[C@@H](C)C(=O)N[C@@H](CC(N)=O)C(=O)N2CCC[C@H]2C(=O)N[C@@H](CN)C(=O)N[C@@H](CC(C)C)C(=O)N2C[C@H](O)C[C@H]2C(=O)N[C@@H](Cc2c[nH]c3ccccc23)C(=O)N[C@@H](CC(=O)O)C(=O)N[C@@H](Cc2c[nH]c3ccccc23)C(=O)N1C [Example 5057] ({CH2CO}-Y[NMeA]NP[Dap]L[Hyp]WDW[NMeNle][NMeNle]RCG-NH2; thioether N-14),6.76 to 30.3 nM,4.78 to 72.9 nM
CCCC[C@H]1C(=O)N(C)[C@@H](CCCC)C(=O)N[C@@H](CCCNC(=N)N)C(=O)N[C@H](C(=O)NCC(N)=O)CSCC(=O)N[C@@H](Cc2ccc(O)cc2)C(=O)N(C)[C@@H](C)C(=O)N[C@@H](CC(N)=O)C(=O)N2CCC[C@H]2C(=O)N[C@@H](CN)C(=O)N[C@@H](CC(C)C)C(=O)N2C[C@H](O)C[C@H]2C(=O)N[C@@H](Cc2c[nH]c3ccccc23)C(=O)N[C@@H](CCC(=O)O)C(=O)N[C@@H](Cc2c[nH]c3ccccc23)C(=O)N1C [Example 5058] ({CH2CO}-Y[NMeA]NP[Dap]L[Hyp]WEW[NMeNle][NMeNle]RCG-NH2; thioether N-14),0.385 to 6.74 nM,4.78 to 72.9 nM
CCCC[C@H]1C(=O)N(C)[C@@H](CCCC)C(=O)N[C@@H](CN)C(=O)N[C@H](C(=O)NCC(N)=O)CSCC(=O)N[C@@H](Cc2ccc(O)cc2)C(=O)N(C)[C@@H](C)C(=O)N[C@@H](CC(N)=O)C(=O)N2CCC[C@H]2C(=O)N[C@@H](CN)C(=O)N[C@@H](CC(C)C)C(=O)N2C[C@H](O)C[C@H]2C(=O)N[C@@H](Cc2c[nH]c3ccccc23)C(=O)N[C@@H](CCN)C(=O)N[C@@H](Cc2c[nH]c3ccccc23)C(=O)N1C [Example 5059] ({CH2CO}-Y[NMeA]NP[Dap]L[Hyp]W[Dab]W[NMeNle][NMeNle][Dap]CG-NH2; thioether N-14),0.385 to 6.74 nM,4.78 to 72.9 nM
